{"source": "patent US20150374718A1", "about": "“Zhankuic Acid A and Analogs thereof and Their Use as an Anti-Inflammatory Agent” (National Cheng Kung University, priority 2014, published 2015)", "key": {"[1]": {"tested_on": "NF-κB-mediated transactivation in Raw264.7 cells", "assay": "NF-κB luciferase reporter assay", "format": "cell-based, murine", "details": "ZAA 1 h, then LPS 24 h", "description": "FIG. 1. ZAA inhibits the production of inflammation-related molecules in LPS- and IFN-γ-stimulated murine macrophages. […] Total cell lysates were subjected to immunoblotting for detecting COX2 and iNOS. Relative expression levels of COX2 and iNOS protein were quantified by densitometric analysis with ImageJ software and normalized according to the β-actin reference band. […] The presence of nitrite in the culture medium was analyzed by the Griess assay and used as an indication of NO levels (n=4; *p<0.05 and ***p<0.001 vs. LPS- or IFN-γ-induced cells). (C) Raw264.7 cells were cotransfected with pNFKB-Luc and pβ-actin-LacZ plasmids. […] Total cell lysates were harvested, and their luciferase activities were determined and normalized on the basis of β-galactosidase activities. […] Numbers below the blots in D and those shown in the table below the blots in E represent the relative expression levels quantified by densitometric analysis with ImageJ software and normalized according to the β-actin reference bands. […]\nSubconfluent Raw264.7 cells cultured in 24-well plates were cotransfected with p-NFκB-Luc and pβ-actin-LacZ plasmids using the Neon Transfection System (Invitrogen, Carlsbad, Calif.) according to the manufacturer's protocol. […] Relative luciferase activity was measured as luciferase activity divided by β-galactosidase activity to normalize transfection efficiency."}, "LPS-induced lethality": {"tested_on": "LPS-induced lethality", "assay": "LPS-induced sepsis model (lethality)", "format": "in vivo", "details": "C3H/HeN mice; ZAA 2 or 10 mg/kg i.p., LPS 20 mg/kg i.p.", "description": "The mice were monitored every 2-4 h until all C3H/HeN mice in the ZAA-untreated and LPS-treated group expired."}, "human neutrophils": {"tested_on": "human neutrophils", "details": "reference (9), cited from earlier work"}, "[2]": {"tested_on": "LPS-induced lung and renal injury", "assay": "LPS-induced lung and renal injury in mice", "details": "ZAA 20 mg/kg i.p., LPS 4 mg/kg i.p., 10 h", "experimental": "After 10 h, mice were sacrificed, and their lung and kidney tissues were removed. […] (B) The number of infiltrated PMNs in each alveolus was observed by light microscopy (original magnification ×200). The number of PMNs was counted in four randomly chosen fields per slide for each mouse and normalized to the number of alveoli. […] Values shown in B-D are means ±SD (n=10; **p<0.01 and ***p<0.001).\nThe lung and kidney were embedded in paraffin, sectioned, and stained with hematoxylin and eosin. Serum samples were collected for determination of blood urea nitrogen (BUN) and serum creatinine levels."}}}
{"smiles": "C=C(CC[C@@H](C)[C@H]1CC[C@H]2C3=C(C(=O)C[C@]12C)[C@@]1(C)CCC(=O)[C@@H](C)[C@@H]1CC3=O)C(C)C(=O)O", "note": "(stereo partly drawn) [No. 1, Zhankuic acid A]", "values": [{"measurement": "NF-κB-mediated transactivation (relative luciferase activity)", "setting": "[1]", "result": "inhibited"}, {"measurement": "protection against LPS-induced lethality (survival)", "setting": "LPS-induced lethality", "result": "significantly protected"}, {"measurement": "ROS production", "setting": "human neutrophils; fMLP- or PMA-activated peripheral human neutrophils", "result": "inhibits"}, {"measurement": "cytotoxicity", "setting": "human neutrophils; human neutrophils", "result": "without exerting significant cytotoxicity"}, {"measurement": "inflammatory responses by human neutrophils", "setting": "human neutrophils", "result": "prevent inflammatory responses"}, {"measurement": "LPS-induced pulmonary accumulation of PMNs", "setting": "[2]; C3H/HeN mice", "result": "significantly prevented"}, {"measurement": "extent of LPS-induced glomerulonephritis", "setting": "[2]; C3H/HeN mice", "result": "significantly reduced"}, {"measurement": "BUN level", "setting": "[2]", "result": "markedly reduced"}, {"measurement": "serum creatinine level", "setting": "[2]", "result": "markedly reduced"}]}
